Measurements taken from US12091425B2 (AMGEN INC., priority 2016, dated 2024).

Columns and labels:
[1] = tested on: OPM-2 human multiple myeloma cell line; experiment: Cell Viability Assay (OPM-2 10 FBS); format: cell-based; details: OPM-2 cells, 16 h, CellTiter-Glo
Summary of the method: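 IC50 from 4-parameter logistic fit of CellTiter-Glo luminescence. 3000 cells/well, 10% FBS medium, serial compound dilutions, 16 h, 37 °C/5% CO2; read 25 min post-reagent.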

[2] = molecular target: T1, Mcl-1/Bim interaction, recombinant human Mcl-1 (171-327) (Homo sapiens, UniProt Q07820); experiment: Cell free Mcl-1: Bim Affinity Assay (Mcl-1 HTRF); format: binding; details: cell free Mcl-1:Bim TR-FRET, recombinant human Mcl-1 (171-327)
T1 construct: made in house
T1 sequence (Q07820 171-327): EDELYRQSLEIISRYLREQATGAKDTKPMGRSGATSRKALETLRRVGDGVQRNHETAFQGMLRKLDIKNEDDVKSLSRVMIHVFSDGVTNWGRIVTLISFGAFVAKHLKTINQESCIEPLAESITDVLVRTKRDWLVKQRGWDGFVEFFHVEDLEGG
Summary of the method: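 Biotin-Bim(51-76) peptide, TR-FRET readout, overnight incubation; IC50 from duplicate competition curves, 4-parameter fit.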

| Structure (SMILES) | IC50 [1] [nM] | IC50 [2] [nM] | IC50 ([1]; Homo sapiens, OPM-2, 16 h) [nM] |
| --- | --- | --- | --- |
| CC(C)OC(=O)CC1C(C)CC=CC(O)C2CCC2CN2CC3(CCCc4cc(Cl)ccc43)COc3ccc(cc32)C(=O)NS1(=O)=O (single isomer, unassigned) [Example 566] | 282 | 0.384 |  |
| CC(C)OC(=O)CC1C(C)CC=CC(O)C2CCC2CN2CC3(CCCc4cc(Cl)ccc43)COc3ccc(cc32)C(=O)NS1(=O)=O (single isomer, unassigned) [Example 567] | 4510 | 3.69 |  |
| CO[C@H]1C/C=C/[C@H](O)[C@@H]2CC[C@H]2CN2C[C@@]3(CCCc4cc(Cl)ccc43)COc3ccc(cc32)C(=O)NS(=O)(=O)[C@@H]1CC1CC1 (single isomer, unassigned) [Example 574] | 188 | 0.393 |  |
| CO[C@H]1C/C=C/[C@H](O)[C@@H]2CC[C@H]2CN2C[C@@]3(CCCc4cc(Cl)ccc43)COc3ccc(cc32)C(=O)NS(=O)(=O)[C@@H]1CC1CC1 (single isomer, unassigned) [Example 575] | 2070 | 3.21 |  |
| COC(=O)CC1C(C)CC=CC(OC)C2CCC2CN2CC3(CCCc4cc(Cl)ccc43)COc3ccc(cc32)C(=O)NS1(=O)=O (single isomer, unassigned) [Example 576] | 220 | 0.382 |  |
| NC(=O)OC[C@@H]1CC/C=C/[C@H](O)[C@@H]2CC[C@H]2CN2C[C@@]3(CCCc4cc(Cl)ccc43)COc3ccc(cc32)C(=O)NS1(=O)=O (single isomer, unassigned) [Example 611] |  | 0.275 | 8490 |
| NC(=O)OC[C@@H]1CC/C=C\[C@H](O)[C@@H]2CC[C@H]2CN2C[C@@]3(CCCc4cc(Cl)ccc43)COc3ccc(cc32)C(=O)NS1(=O)=O (single isomer, unassigned) [Example 612] |  | 0.362 | 15200 |
| N#CCC[C@@H]1CC/C=C/[C@H](O)[C@@H]2CC[C@H]2CN2C[C@@]3(CCCc4cc(Cl)ccc43)COc3ccc(cc32)C(=O)NS1(=O)=O (single isomer, unassigned) [Example 613] |  | 0.329 | 1540 |
| N#CCC[C@H]1CC/C=C/[C@H](O)[C@@H]2CC[C@H]2CN2C[C@@]3(CCCc4cc(Cl)ccc43)COc3ccc(cc32)C(=O)NS1(=O)=O (single isomer, unassigned) [Example 614] | 8070 | 1.13 |  |
| CO[C@H]1/C=C/CC[C@@H](CC(C)(C)OC)S(=O)(=O)NC(=O)c2ccc3c(c2)N(C[C@@H]2CC[C@H]21)C[C@@]1(CCCc2cc(Cl)ccc21)CO3 (single isomer, unassigned) [Example 615] | 643 | 0.696 |  |
| CO[C@H]1/C=C/CC[C@@H](CCO)S(=O)(=O)NC(=O)c2ccc3c(c2)N(C[C@@H]2CC[C@H]21)C[C@@]1(CCCc2cc(Cl)ccc21)CO3 (single isomer, unassigned) [Example 617] | 11500 | 0.221 |  |
| CN(C)C(=O)CC[C@@H]1CC/C=C/[C@H](O)[C@@H]2CC[C@H]2CN2C[C@@]3(CCCc4cc(Cl)ccc43)COc3ccc(cc32)C(=O)NS1(=O)=O (single isomer, unassigned) [Example 618] | 607 | 0.172 |  |
| COC(=O)CC1CCC=CC(O)C2CCC2CN2CC3(CCCc4cc(Cl)ccc43)COc3ccc(cc32)C(=O)NS1(=O)=O (single isomer, unassigned) [Example 619] | 401 | 0.187 |  |
| CN(C)C(=O)C[C@@H]1CC/C=C/[C@H](O)[C@@H]2CC[C@H]2CN2C[C@@]3(CCCc4cc(Cl)ccc43)COc3ccc(cc32)C(=O)NS1(=O)=O (single isomer, unassigned) [Example 621] | 3670 | 0.225 |  |
| CO[C@H]1/C=C/CCC(CCC(=O)N(C)C)S(=O)(=O)NC(=O)c2ccc3c(c2)N(C[C@@H]2CC[C@H]21)C[C@@]1(CCCc2cc(Cl)ccc21)CO3 (single isomer, unassigned) [Example 622] | 257 | 0.224 |  |
| CN(C)S(=O)(=O)N1CCN(C(=O)CC[C@@H]2CC/C=C/[C@H](O)[C@@H]3CC[C@H]3CN3C[C@@]4(CCCc5cc(Cl)ccc54)COc4ccc(cc43)C(=O)NS2(=O)=O)CC1 (single isomer, unassigned) [Example 626] | 2200 | 0.305 |  |
| CN(C)S(=O)(=O)N1CCN(C(=O)C[C@@H]2CC/C=C/[C@H](O)[C@@H]3CC[C@H]3CN3C[C@@]4(CCCc5cc(Cl)ccc54)COc4ccc(cc43)C(=O)NS2(=O)=O)CC1 (single isomer, unassigned) [Example 631] | 2530 | 0.298 |  |
| Cc1nnc(CCC2CCC=CC(O)C3CCC3CN3CC4(CCCc5cc(Cl)ccc54)COc4ccc(cc43)C(=O)NS2(=O)=O)o1 (single isomer, unassigned) [Example 632] |  | 0.187 | 878 |
| O=C1NS(=O)(=O)C(Cc2ccc(Br)cc2)CCC=CC(O)C2CCC2CN2CC3(CCCc4cc(Cl)ccc43)COc3ccc1cc32 (single isomer, unassigned) [Example 633] | 17800 | 23.1 |  |

| Structure (SMILES) | IC50 [1] [nM] | IC50 [2] [nM] | IC50 ([1]; Homo sapiens, OPM-2, 16 h) [nM] |
| --- | --- | --- | --- |
| COC1CC=CC(O)C2CCC2CN2CC3(CCCc4cc(Cl)ccc43)COc3ccc(cc32)C(=O)NS(=O)(=O)C1CC1CCCO1 (single isomer, unassigned) [Example 638] |  | 0.243 | 131 |
| COC1C=CCC(OC)C(CC2CCCO2)S(=O)(=O)NC(=O)c2ccc3c(c2)N(CC2CCC21)CC1(CCCc2cc(Cl)ccc21)CO3 (single isomer, unassigned) [Example 641] |  | 0.537 | 282 |
| COC1C=CCC(OC)C(CC2CCCO2)S(=O)(=O)NC(=O)c2ccc3c(c2)N(CC2CCC21)CC1(CCCc2cc(Cl)ccc21)CO3 (single isomer, unassigned) [Example 642] | 351 | 0.539 |  |
| CO[C@H]1C/C=C/[C@H](O)[C@@H]2CC[C@H]2CN2C[C@@]3(CCCc4cc(Cl)ccc43)COc3ccc(cc32)C(=O)NS(=O)(=O)[C@@H]1CC(C)C (single isomer, unassigned) [Example 643] |  | 0.337 | 151 |
| CO[C@H]1C/C=C/[C@H](OCCN2CCOCC2)[C@@H]2CC[C@H]2CN2C[C@@]3(CCCc4cc(Cl)ccc43)COc3ccc(cc32)C(=O)NS(=O)(=O)[C@@H]1C[C@@H]1CCCO1 (single isomer, unassigned) [Example 645] | 125 | 0.589 |  |
| O=C1NS(=O)(=O)[C@H](Cc2ccccc2)C/C=C/[C@H](O)[C@@H]2CC[C@H]2CN2C[C@@]3(CCCc4cc(Cl)ccc43)COc3ccc1cc32 (single isomer, unassigned) [Example 646] | 23700 | 45.3 |  |
| CC1CC=CC(O)C2CCC2CN2CC3(CCCc4cc(Cl)ccc43)COc3ccc(cc32)C(=O)NS(=O)(=O)C1Cc1ccccc1 (single isomer, unassigned) [Example 648] |  | 1.45 | 154 |
| COC[C@H](O)C[C@@H]1CC/C=C/[C@H](OC)[C@@H]2CC[C@H]2CN2C[C@@]3(CCCc4cc(Cl)ccc43)COc3ccc(cc32)C(=O)NS1(=O)=O (single isomer, unassigned) [Example 651] | 229 | 0.316 |  |
| COC[C@H](O)C[C@@H]1CC/C=C/[C@H](OC)[C@@H]2CC[C@H]2CN2C[C@@]3(CCCc4cc(Cl)ccc43)COc3ccc(cc32)C(=O)NS1(=O)=O (single isomer, unassigned) [Example 652] | 4460 | 2.4 |  |
| C[C@H]1C/C=C/[C@H](O)[C@@H]2CC[C@H]2CN2C[C@@]3(CCCc4cc(Cl)ccc43)COc3ccc(cc32)C(=O)NS(=O)(=O)[C@@H]1c1ccccc1 (single isomer, unassigned) [Example 653] | 371 | 0.722 |  |
| C[C@H]1C/C=C/[C@H](O)[C@@H]2CC[C@H]2CN2C[C@@]3(CCCc4cc(Cl)ccc43)COc3ccc(cc32)C(=O)NS(=O)(=O)[C@@H]1c1ccccc1 (single isomer, unassigned) [Example 654] | 3510 | 7.6 |  |
| COCC(O)CC1CCC=CC(OC)C2CCC2CN2CC3(CCCc4cc(Cl)ccc43)COc3ccc(cc32)C(=O)NS1(=O)=O (single isomer, unassigned) [Example 658] |  | 0.285 | 259 |
| COC[C@@H](O)C[C@@H]1CC/C=C/[C@H](OC)[C@@H]2CC[C@H]2CN2C[C@@]3(CCCc4cc(Cl)ccc43)COc3ccc(cc32)C(=O)NS1(=O)=O (single isomer, unassigned) [Example 659] | 10900 | 3.37 |  |
| CC1CC=CC(O)C2CCC2CN2CC3(CCCc4cc(Cl)ccc43)COc3ccc(cc32)C(=O)NS(=O)(=O)C1CC(F)(F)F (single isomer, unassigned) [Example 663] |  | 0.312 | 3110 |
| C[C@H]1C/C=C/[C@H](O)[C@@H]2CC[C@H]2CN2C[C@@]3(CCCc4cc(Cl)ccc43)COc3ccc(cc32)C(=O)NS(=O)(=O)N1Cc1ccccn1 (single isomer, unassigned) [Example 667] | 378 | 0.244 |  |
| CC1CC=CC(O)C2CCC2CN2CC3(CCCc4cc(Cl)ccc43)COc3ccc(cc32)C(=O)NS(=O)(=O)N1Cc1ccccn1 (single isomer, unassigned) [Example 668] |  | 17 | 11600 |
| COCCO[C@H]1/C=C/C[C@H](C)[C@@H](CC(F)(F)F)S(=O)(=O)NC(=O)c2ccc3c(c2)N(C[C@@H]2CC[C@H]21)C[C@@]1(CCCc2cc(Cl)ccc21)CO3 (single isomer, unassigned) [Example 669] | 272 | 1.37 |  |
| COCCO[C@H]1/C=C/C[C@H](C)[C@H](c2ccccc2)S(=O)(=O)NC(=O)c2ccc3c(c2)N(C[C@@H]2CC[C@H]21)C[C@@]1(CCCc2cc(Cl)ccc21)CO3 (single isomer, unassigned) [Example 670] | 1000 | 2.48 |  |
